≈ marks a conversion by molar mass, not a printed value. Where two headings read alike, the source gives them in different places.
Key:
[1] = target: T1, urease in intact H. pylori cell (Helicobacter pylori, UniProt P69996); test: Urease inhibition in intact H. pylori cell (indophenol method); format: cell-based
T1 construct: H. pylori urease was replaced by 25 µL of cell suspension (4.0 × 10^7 CFU/mL); endogenous in cells; host or cells: intact H. pylori ATCC 43504 cells

[2] = target: T2, H. pylori urease (Helicobacter pylori, UniProt P69996); test: Urease inhibition, extracted H. pylori urease (indophenol method); format: biochemical; conditions: extracted H. pylori urease
T2 construct: endogenous in cells; host or cells: H. pylori ATCC 43504; sonicated, supernatant desalted on Sephadex G-25 (crude extract)
Method: For urease inhibition assays, 50 mL broth cultures (2.0 × 10^8 CFU/mL) were centrifuged (5000×g, 4 °C) to collect the bacteria, and after washing twice with phosphate-buffered saline (pH 7.4), the H. pylori precipitation was stored at –80 °C for 8 h, and then was returned to room temperature, and after addition of 3 mL of distilled water and protease inhibitors, sonication was performed for 60 s. Following centrifugation (15,000×g, 4 °C), the supernatant was desalted through Sephadex G-25 column (PD-10 columns, Amersham Pharmacia Biotech, Uppsala, Sweden). The resultant crude urease solution was added to an equal volume of glycerol and stored at 4 °C until use in the experiment.
Urease activity was determined in the 96-well assay plate by measuring ammonia production using the indophenol method as described by Weatherburn[20]. Briefly, to each well, 50 µL of urea (10 mM) in phosphate buffer solution was added in a mixture of 25 µL (10 U) of H. pylori urease and 25 µL of the test compound, which was incubated at 37 °C for 0.5 h. Fifty µL of phenol reagent (containing 127 mM phenol and 0.168 mM sodium nitroprusside) and 50 µL of alkali reagent (containing 125 mM NaOH and 0.168 mM NaOCl) were added in turn. The resulted mixture was incubated at 37 °C for another 0.5 h for colouration developing. The increasing absorbance was measured at 630 nm after 50 min using a microplate reader (Molecular Devices, San Jose, CA). Percentage inhibitions were calculated from the following formula (Equation (1)). Experiments were performed in triplicate and AHA was used as reference drug, and the IC50 value was determined as the concentration of compound that give 50% inhibition of maximal activity. As for the urease assay of intact cells, 25 µL (10 U) of H. pylori urease was replaced by 25 µL of cell suspension (4.0 × 10^7 CFU/mL).

[3] = Cytotoxicity MTT assay, L-02; format: cell-based; conditions: human, L-02 cells (normal hepatic cell line), 25 μg/mL
Method: (§1) The stock solutions of the selected compounds (250 µg/mL, in PBS) were prepared in medium. L-02 cells and P69 cells were grown in medium (90% RPMI-1640 medium, 10% foetal bovine serum, 1% penicillin/streptomycin) and maintained at 37 °C in a humidified atmosphere containing 5% CO2, respectively. Cells were seeded in 96-well cell culture plates. On the day when seeding, the cells were exposed to 250 µg/mL of compounds and further cultured for 72 h at 37 °C. Cell proliferation was then determined using the thiazolyl blue tetrazolium bromide (MTT) assay.

[4] = Cytotoxicity MTT assay, P69; format: cell-based; conditions: human, P69 cells (normal prostate cell line), 25 μg/mL
Method: as §1

[5] = target: T3, Jack bean urease (Canavalia ensiformis, UniProt P07374); test: Ligand affinity by surface plasmon resonance (SPR); format: binding; conditions: for kon: pH 7.4; for koff: pH 7.4, SPR, immobilised urease, PBS pH 7.4
T3 construct: purchased
Method: The binding kinetics of selected compounds were assayed via surface plasmon resonance (SPR) using an OPEN SPR instrument (Nicoya Lifesciences, Kitchener, Canada). First, urease dissolved (50 µg/mL) in PBS buffer (1 mM KH2PO4, 155 mM NaCl, 3 mM Na2HPO4-12H2O, pH 7.4), was immobilised to a CM5 chip using a standard amine coupling procedure. Then, SPR measurements were carried out in PBS, and stock solutions were diluted in the same buffer. Data were collected with OpenSPR control software. Experiments were performed by monitoring the refractive index changes as a function of time under constant flow rate of 20 µL/min. The relative amount of inhibitor bound to the urease was determined by measuring the net increase in refractive index over time compared to control running buffer. There is an inline subtraction of reference surface during the run. This change is usually reported in response units (RU). Sensograms were processed and analysed using TraceDrawer software. The binding curves were fit to determine the equilibrium dissociation constant (KD).
In the present paper, the pure Jack bean urease from commercial was used for this assay because of non-availability of pure H. pylori urease. […] For efficient and tight ligand binding, the rate constant koff is of particular interest, because koff has a potential to differentiate indistinguishable compounds with similar affinities.

[6] = target: T3, Jack bean urease; test: Enzyme kinetic study (indophenol method); format: biochemical; conditions: for Type of inhibition: Jack bean urease; for Ki': dissociation constant of urease-urea-inhibitor complex
Method: Based on the indophenol method, the velocity of ammonia production (V) was measured in the presence of concentration gradients of urea ([S]) for every specific concentration of selected compounds ([I]). Nonlinear fitting curves to data of V and [S] were used to determine the type of enzyme inhibition based on the general kinetics equation (Equation (1)). Subsequently, the resulted fitting constants ( Km/Vmax(1+[I]/Ki) or 1/Vmax(1+[I]/Ki′) ) and [I] were linearly fitted to give kinetic parameters Ki and Ki', respectively. The experimental assay was performed against a pure urease (Jack bean urease) for the consideration of precision. (1) V=Vmax[S]/Km(1+[I]/Ki)+(1+[I]/K^′i)[S]
Mazzei et al. confirmed that urease shared the mechanism of catalysis and inhibition regardless of the biological sources[27]^,[28]. For excluding the possible interference, a pure urease (Jack bean urease) was therefore used for kinetic assays. As an example, Figure 2 describes the preincubation-time dependence of urease inhibition by b19. The suppressed urease activity maintained at relatively constant values with the increasing preincubation time under different concentrations of b19, resulting in nearly equal IC50 values.
Similarly, kinetic parameters ( Ki and Ki' ) and inhibition types of other compounds were also determined and are shown in Table 3.

[7] = system: H. pylori; test: Minimum inhibitory concentration, broth microdilution (CLSI); format: cell-based, Helicobacter pylori (ATCC 43504)
Method: H. pylori (ATCC 43504; […] The minimum inhibitory concentration (MIC) values were determined using the broth microdilution protocol according to the methods of the Clinical and Laboratory Standards Institute (CLSI)[21].

T1 sequence (P69996 whole entry): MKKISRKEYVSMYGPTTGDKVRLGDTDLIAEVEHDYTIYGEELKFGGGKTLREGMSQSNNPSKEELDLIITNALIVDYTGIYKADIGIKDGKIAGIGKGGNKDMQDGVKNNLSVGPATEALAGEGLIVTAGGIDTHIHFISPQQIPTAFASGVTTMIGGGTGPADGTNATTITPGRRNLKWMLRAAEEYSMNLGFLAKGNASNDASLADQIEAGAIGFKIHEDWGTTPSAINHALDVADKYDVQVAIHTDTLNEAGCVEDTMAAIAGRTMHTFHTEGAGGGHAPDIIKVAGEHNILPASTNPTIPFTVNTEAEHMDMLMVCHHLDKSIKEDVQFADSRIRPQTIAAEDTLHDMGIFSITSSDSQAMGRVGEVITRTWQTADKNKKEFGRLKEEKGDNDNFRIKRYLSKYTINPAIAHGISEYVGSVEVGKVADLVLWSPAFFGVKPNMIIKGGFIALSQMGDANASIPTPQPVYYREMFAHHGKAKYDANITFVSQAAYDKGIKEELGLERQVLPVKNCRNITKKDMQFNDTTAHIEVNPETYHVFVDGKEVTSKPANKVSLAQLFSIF
T1 sequence (P14916 whole entry, further chain): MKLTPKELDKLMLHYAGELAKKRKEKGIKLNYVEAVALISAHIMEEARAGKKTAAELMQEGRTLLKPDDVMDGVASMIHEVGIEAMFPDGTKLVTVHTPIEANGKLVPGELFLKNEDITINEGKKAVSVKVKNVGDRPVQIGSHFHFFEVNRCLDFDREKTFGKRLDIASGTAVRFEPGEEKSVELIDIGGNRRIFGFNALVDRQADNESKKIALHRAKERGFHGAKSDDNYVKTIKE
T3 sequence (P07374 whole entry, looked up): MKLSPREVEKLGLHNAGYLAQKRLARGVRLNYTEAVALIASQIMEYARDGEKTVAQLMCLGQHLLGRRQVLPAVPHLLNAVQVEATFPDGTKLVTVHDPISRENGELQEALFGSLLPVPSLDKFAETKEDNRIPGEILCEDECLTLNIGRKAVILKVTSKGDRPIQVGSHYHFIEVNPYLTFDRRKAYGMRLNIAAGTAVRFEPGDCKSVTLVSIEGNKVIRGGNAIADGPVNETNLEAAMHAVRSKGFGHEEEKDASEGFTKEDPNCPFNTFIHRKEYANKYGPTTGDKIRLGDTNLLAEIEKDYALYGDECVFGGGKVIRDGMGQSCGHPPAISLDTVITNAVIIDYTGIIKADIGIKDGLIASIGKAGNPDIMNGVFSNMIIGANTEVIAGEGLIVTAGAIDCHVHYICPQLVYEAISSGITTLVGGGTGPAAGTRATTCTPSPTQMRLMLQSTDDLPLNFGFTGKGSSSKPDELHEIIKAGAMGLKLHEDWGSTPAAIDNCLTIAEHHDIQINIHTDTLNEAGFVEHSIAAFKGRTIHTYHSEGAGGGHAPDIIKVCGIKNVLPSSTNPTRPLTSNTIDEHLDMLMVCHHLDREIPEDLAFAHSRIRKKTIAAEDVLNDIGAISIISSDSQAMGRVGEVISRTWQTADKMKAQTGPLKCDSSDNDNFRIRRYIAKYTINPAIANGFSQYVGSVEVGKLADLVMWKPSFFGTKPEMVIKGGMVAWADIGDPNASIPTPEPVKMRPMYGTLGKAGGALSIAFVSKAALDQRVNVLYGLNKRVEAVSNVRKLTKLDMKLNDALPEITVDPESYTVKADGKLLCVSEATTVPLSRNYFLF
T2 sequence (P14916 whole entry): as the sequence (P14916 whole entry, further chain) above
T2 sequence (P69996 whole entry): as the sequence (P69996 whole entry) above

With COc1ccc(CC(=O)NC(N)=S)cc1OC [b10] the IC50 [1] was 207 ± 16 µM, the IC50 ([2]; IC50 Extracted urease) was 24.2 ± 0.6 µM and the melting point was 146.3 to 147.6 °C. The viability at 72 h, 25 µg/mL [3] was 108% and the viability at 72 h, 25 µg/mL [4] was 95.3%.
Compound NC(=S)NC(=O)Cc1cccc(O)c1 [b4] has an IC50 [1] of 108 ± 6.1 µM, a Kd [5] of 0.644 ± 0.0092 µM and a kon [5] of 60800 M⁻¹ s⁻¹. The koff [5] was 0.0389 s⁻¹, the IC50 ([2]; IC50 Extracted urease) was 16.3 ± 0.3 µM and the melting point was 160.3 to 161.5 °C. For the same compound, the Ki [6] was 4.34 µM, the Type of inhibition [6] was “Reversible” and the “Ki'” value [6] was 8.52 µM. It also gave a viability at 72 h, 25 µg/mL [3] of 93.7%, an MIC ([7]; Helicobacter pylori, pH=4.0, read-out: MIC pH=4.0) of 64 µM (≈ 13.5 µg/mL) and an MIC ([7]; Helicobacter pylori, pH=7.0, read-out: MIC pH=7.0) of over 64 µM. For the same compound, the viability at 72 h, 25 µg/mL [4] was 88.1%.
NC(=S)NC(=O)Cc1cccc(F)c1 [b14] showed an IC50 ([2]; IC50 Extracted urease) of 50.3 ± 3.5 µM and a melting point of 126 to 127.4 °C.
NC(=S)NC(=O)C(c1ccccc1)c1ccccc1 [b25] showed an IC50 ([2]; IC50 Extracted urease) of 318 ± 24 µM and a melting point of 169.5 to 172.7 °C.
COc1ccccc1CC(=O)NC(N)=S [b17] showed an IC50 ([2]; IC50 Extracted urease) of 55.7 ± 3.1 µM and a melting point of 135.4 to 136.9 °C.
NC(=S)NC(=O)Cc1ccc(O)c(O)c1 [b29] gave an IC50 [1] of 143 ± 6 µM, a Kd [5] of 0.783 ± 0.0213 µM and a kon [5] of 19800 M⁻¹ s⁻¹. For the same compound, the koff [5] was 0.0155 s⁻¹, the IC50 ([2]; IC50 Extracted urease) was 18.4 ± 1.6 µM and the melting point was 153.5 to 155 °C. For the same compound, the Ki [6] was 8.21 µM, the Type of inhibition [6] was “Reversible” and the “Ki'” value [6] was 21.5 µM.
NC(=S)NC(=O)Cc1ccc2c(c1)OCO2 [b28] gave an IC50 ([2]; IC50 Extracted urease) of 98 ± 5 µM and a melting point of 153.5 to 155 °C.
For NC(=S)NC(=O)Cc1ccc(Br)cc1 [b12], the IC50 [1] was 189 ± 18 µM, the IC50 ([2]; IC50 Extracted urease) was 22.9 ± 0.4 µM and the melting point was 174.9 to 176.2 °C. It also gave a viability at 72 h, 25 µg/mL [3] of 91.5% and a viability at 72 h, 25 µg/mL [4] of 89.4%.
For NC(=S)NC(=O)Cc1ccc(Cl)c(Cl)c1 [b3], the IC50 ([2]; IC50 Extracted urease) was 63 ± 4.6 µM and the melting point was 202.1 to 203.4 °C.
Work on CC(=O)NO [AHA, acetohydroxamic acid, reference compound] yielded an IC50 ([1]; intact H. pylori cell suspension, read-out: IC50 Urease in intact cell) of 171 ± 9 µM, an IC50 ([2]; read-out: IC50 Extracted urease) of 27.2 ± 0.7 µM and an MIC ([7]; pH=4.0, read-out: MIC pH=4.0) of 16.0 µM (≈ 1.2 µg/mL). The MIC ([7]; pH=7.0, read-out: MIC pH=7.0) was over 64.0 µM.
NC(=S)NC(=O)Cc1ccccc1Cl [b13] showed an IC50 ([2]; IC50 Extracted urease) of 54.2 ± 4.8 µM and a melting point of 148.8 to 151.2 °C.
NC(=S)NC(=O)Cc1ccccc1[N+](=O)[O-] [b20] showed an IC50 ([2]; IC50 Extracted urease) of 183 ± 12 µM and a melting point of 177.6 to 178.4 °C.
NC(=S)NC(=O)Cc1ccc(-c2ccccc2)cc1 [b26] showed an IC50 ([2]; IC50 Extracted urease) of 279 ± 16 µM and a melting point of 187.3 to 189.6 °C.
For NC(=S)NC(=O)Cc1cccc(C(F)(F)F)c1 [b9], the IC50 ([2]; IC50 Extracted urease) was 136 ± 7 µM and the melting point was 204.3 to 205.8 °C.
